Results published in US9801832B2, “Pharmaceutical composition having synergistic action of direct catalase inhibitors and modulators of no metabolism or of extracellular superoxide anion production which lead to catalase destruction” (Universitaetsklinikum Freiburg, priority 2012, dated 2017).

Experiments:
[1] = test system: MKN-45 gastric carcinoma cells; assay: Induction of apoptosis in MKN-45 gastric carcinoma cells (percentages of apoptotic cells); assay type: cell-based, human; conditions: for synergistic interaction with salicylic acid in the induction of apoptosis: 6 hours (FIGS. 22-25)
Procedure: 12 500 MKN-45 cells in 100 μl (duplicate batches) were treated with the given concentrations of salicylic acid or remained free from salicylic acid. After 10 minutes the given concentrations of cyanidine were added.
12 500 MKN-45 cells in 100 μl (duplicate batches) were treated with 0.1 μg/ml salicylic acid or remained free from salicylic acid (control). […] After 6.5 hours the percentages of apoptotic cells were determined in duplicate batches.
12 500 MKN-45 cells in 100 μl (duplicate batches) either received no additive (control), 2 mM of the singlet oxygen scavenger histidine or 25 μM Caspase-8 inhibitor. […] After another 15 minutes cyanidine was added in the given concentrations. After 6.5 hours of incubation at 37° C. the percentages of apoptotic cells were determined.
12 500 MKN-45 cells in 100 μl (duplicate batches) either received no additive (control), 2 mM of the singlet oxygen scavenger histidine or 25 μM Caspase-8 inhibitor. […] After 6.5 hours incubation at 37° C. the percentage of apoptotic cells was determined. […]
12 500 MKN-45 cells in 100 μl medium were incubated with increasing concentrations of the given active ingredients, in the presence or absence of 0.1 μg/ml salicylic acid for 6 hours and then, the percentages of the apoptotic cells were determined (repeated determination).

tumor cell catalase = biological target: T1, tumor cell catalase (Homo sapiens, UniProt P04040); assay: Catalase inhibition/inactivation in MKN-45 cells by challenge with exogenous peroxynitrite, NO donor or glucose oxidase; assay type: cell-based; set-up: endogenous in cells; host or cells: MKN-45 gastric carcinoma cells; conditions: 200 μM peroxynitrite
T1 sequence (P04040 2-527 limits assumed): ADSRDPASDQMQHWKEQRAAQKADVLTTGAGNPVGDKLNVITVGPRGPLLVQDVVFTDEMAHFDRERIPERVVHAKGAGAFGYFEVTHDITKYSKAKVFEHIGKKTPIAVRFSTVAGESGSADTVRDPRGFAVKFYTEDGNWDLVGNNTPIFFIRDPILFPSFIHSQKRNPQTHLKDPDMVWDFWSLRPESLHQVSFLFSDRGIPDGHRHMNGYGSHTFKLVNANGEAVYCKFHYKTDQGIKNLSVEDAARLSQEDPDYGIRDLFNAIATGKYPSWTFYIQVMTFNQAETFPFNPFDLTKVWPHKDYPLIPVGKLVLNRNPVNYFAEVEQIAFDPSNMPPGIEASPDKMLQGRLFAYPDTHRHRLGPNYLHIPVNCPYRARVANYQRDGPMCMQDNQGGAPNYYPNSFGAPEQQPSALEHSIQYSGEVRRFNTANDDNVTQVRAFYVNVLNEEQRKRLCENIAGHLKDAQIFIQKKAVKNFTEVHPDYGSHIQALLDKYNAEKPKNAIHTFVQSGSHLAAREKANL
Procedure: Direct catalase inhibition with relevance to the induction of apoptosis in tumor cells can be determined by pre-incubating tumor cells at first in the presence of the singlet oxygen scavenger histidine (2 mM) with the substance to be tested in increasing concentration (between 10 and 30 minutes at 37° C.) and subsequently adding peroxynitrite in the concentration range between 10 and 200 μM. The tumor cells are protected from the apoptosis-triggering effect of peroxynitrite by their membranous catalase. An inhibition of the catalase partially or completely cancels this protection and in the presence of peroxynitrite leads to the induction of apoptosis. The presence of 2 mM histidine ensures that the measured induction of apoptosis is not a singlet oxygen-mediated inactivation of the catalase by destruction of its active center. Alternatively, instead of addition of histidine inhibition of the NADPH oxidase by 100 μM AEBSF may take place. With prevented superoxide anion production also no singlet oxygen formation in the test system is possible.
4000 MKN-45 cells per 100 μl in […] were treated with increasing concentrations of monoclonal antibodies against catalase “Anti-KAT” or Anti-EGFR. After 15 minutes either 200 μM peroxynitrite (“PON”), 0.5 mM DEA-NONOate (rapidly decomposing NO donor), or 2 mU/ml glucose oxidase (GOX) that continuously generates hydrogen peroxide were added. After another two hours at 37° C. the percentages of apoptotic cells were determined in duplicate batches.
The principle of identification is based on the fact that tumor cells (here MKN-45 gastric carcinoma cells) are protected from the apoptosis-triggering effect of exogenously added peroxynitrite by their membranous catalase. Addition of catalase inhibitors sensitizes the cells to the effect of exogenous peroxynitrite.
The experiment was performed in analogy to that described in FIG. 9 except that instead of Anti-KAT a monoclonal antibody against SOD was used. The cells were tested in two different densities, namely 4000 and 12 500 cells per 100 μl. The challenge to test the activity of catalase was carried out with 200 μM peroxynitrite, or 0.5 mM DEA NONOate or 2 mU/ml GOX.
Subsequently, 200 μM or no peroxynitrite was added. After 1.5 hours the percentages of apoptotic cells were determined in duplicate batches.
Subsequently, 200 μM or no peroxynitrite was added. After 1 hour the percentages of apoptotic cells were determined in duplicate batches.
12 500 MKN-45 cells in 100 μl medium received 100 μM AEBSF or no additive. After 15 minutes the given concentrations of cyanidine were added and the batches were incubated for 15 minutes at 37° C. Subsequently, 200 μM peroxynitrite (PON) were added or the batches were not treated with peroxynitrite (control). After 1 hour the percentages of apoptotic cells were determined in duplicate batches.
12 500 MKN-45 cells received no addition (control), or 2 mM histidine, or 100 μM AEBSF or 2.4 mM L-NAME immediately before the addition of the given concentrations of salicylic acid (“0 min”) or 20 minutes after addition of salicyl. 20 minutes after the addition of salicylic acid 200 μM peroxynitrite (PON) were added to all batches except the control batches. After another 2 hours the percentages of apoptotic cells were determined in duplicates.

[2] = 0.1 μg/ml salicylic acid, MKN-45

Compound: N=C(NO)NCC[C@H](N)C(=O)O [NOR-NOHA]
- synergistic interaction with salicylic acid in the induction of apoptosis [1, 2]: synergistically reacts

Compound: C=CCN=C=S [allylisothiocyanate]
- synergistic interaction with salicylic acid in the induction of apoptosis [1, 2]: synergistically reacts

Compound: N=C(N)NCCC[C@H](N)C(=O)O [arginine]
- synergistic interaction with salicylic acid in the induction of apoptosis [1, 2]: synergistically reacts

Compound: C[C@@H]1CC[C@H]2[C@@H](C)C(=O)O[C@@H]3O[C@@]4(C)CC[C@@H]1[C@]32OO4 [artemisinin]
- synergistic interaction with salicylic acid in the induction of apoptosis [1, 2]: synergistically reacts

Compound: O=C1O[C@H]([C@@H](O)CO)C(O)=C1O [ascorbic acid]
- inhibition of tumor cell catalase (sensitization to exogenous peroxynitrite) (tumor cell catalase; MKN-45): directly inhibit catalase
- synergism with cyanidine in the induction of apoptosis [1]: Synergism is achieved
- synergism with taxol in the induction of apoptosis [1]: Synergism is achieved

Compound: Oc1cc(O)c2cc(O)c(-c3ccc(O)c(O)c3)[o+]c2c1.[Cl-] [cyanidine, cyanidine chloride]
- catalase inhibition / sensitization to peroxynitrite with inhibited superoxide anion synthesis (tumor cell catalase; 100 μM AEBSF, MKN-45): do not exhibit sensitivity for peroxynitrite
- inhibition of tumor cell catalase (sensitization to exogenous peroxynitrite) (tumor cell catalase; MKN-45): leads to a sensitization to peroxynitrite
- requirement of singlet oxygen, superoxide anions and NO for catalase inhibition/inactivation (tumor cell catalase; 2 mM histidine, 100 μM AEBSF or 2.4 mM L-NAME, MKN-45 (FIGS. 14, 15)): requires singlet oxygen, superoxide anions and NO
- induction of apoptosis, substance alone at the concentration of the combination ([1]; 0.15 ng/ml cyanidine alone, 0.08 μg/ml salicylic acid alone, MKN-45 (FIG. 16)): remained ineffective
- induction of apoptosis by the combination with salicylic acid ([1]; 0.15 ng/ml cyanidine with 0.08 μg/ml salicylic acid, MKN-45 (FIG. 16)): maximum induction of apoptosis
- dependence of the synergistic effect with salicylic acid on Caspase-8 ([1]; 0.1 μg/ml salicylic acid, 25 μM Caspase-8 inhibitor, MKN-45, 6.5 hours (FIGS. 18, 19)): independent of Caspase-8
- dependence of the synergistic effect with salicylic acid on singlet oxygen ([1]; 0.1 μg/ml salicylic acid, 2 mM histidine, MKN-45, 6.5 hours (FIGS. 18, 19)): also based on the effect of singlet oxygen
- synergistic effect with salicylic acid in the induction of apoptosis ([1]; 0.1 μg/ml salicylic acid, MKN-45, 6.5 hours (FIG. 17)): remarkable synergistic effect
- EC50 ([1]; Homo sapiens, applied alone, MKN-45, 6 hours (FIG. 16), read-out: concentration at half-maximum value of induction of apoptosis): ~0.02 µg/mL
- concentration at optimum of induction of apoptosis ([1]; applied alone, MKN-45, 6 hours (FIG. 16)): 0.3 µg/mL
- synergistic effect with salicylic acid in the induction of apoptosis ([1]; given concentrations of salicylic acid, MKN-45, 6 hours (FIG. 16)): considerable synergistic effect
- dependence of the induction of apoptosis on Caspase-8 ([1]; substance alone, 25 μM Caspase-8 inhibitor, MKN-45): depends on the activity of dead receptors (such as FAS) and the thus activated Caspase-8
- dependence of the induction of apoptosis on singlet oxygen ([1]; substance alone, 2 mM histidine (singlet oxygen scavenger), MKN-45): depends on singlet oxygen
- induction of apoptosis ([1]; substance alone, 12 500 MKN-45 cells in 100 μl, 4-6.5 hours at 37° C.): concentration-dependent induction of apoptosis

Compound: C=CCSSCC=C [diallyldisulfide]
- synergistic interaction with salicylic acid in the induction of apoptosis [1, 2]: synergistically reacts

Compound: C=CCSCC=C [diallylsulfide]
- synergistic interaction with salicylic acid in the induction of apoptosis [1, 2]: not

Compound: COc1cc(O)c(CC=C(C)C)c2c1C(=O)CC(c1ccc(O)cc1)O2 (stereo not drawn) [isoxanthohumol]
- synergistic interaction with salicylic acid in the induction of apoptosis [1, 2]: synergistically reacts

Compound: CCCCCCCCCCCCCCCC(=O)O [palmitic acid]
- synergistic interaction with salicylic acid in the induction of apoptosis [1, 2]: synergistically reacts

Compound: O=c1c(O)c(-c2ccc(O)c(O)c2)oc2cc(O)cc(O)c12 [quercetin]
- synergistic interaction with salicylic acid in the induction of apoptosis [1, 2]: synergistically reacts

Compound: COc1cc(O)c(CC=C(C)C)c(O)c1C(=O)/C=C/c1ccc(O)cc1 [xanthohumol]
- synergistic interaction with salicylic acid in the induction of apoptosis [1, 2]: synergistically reacts
